In publication PMC7290078, “Agonist bias and agonist‐dependent antagonism at corticotrophin releasing factor receptors” (Pharmacology Research & Perspectives, 2020):
No end group written: not given here.

Legend:
[1] = target: T1, CRF2 receptor (hCRF2α) (Homo sapiens, UniProt Q13324); test: Antagonism of agonist-mediated cAMP accumulation in Cos7 cells expressing CRF2 receptors; type: cell-based; conditions: for antagonist potency (pKB): hCRF2α, global Schild analysis, mean ± SEM, n = 5
T1 construct: host or cells: Cos7 cells, transient transfection (PEI), pcDNA3.0/3.1 vector
T1 sequence (Q13324 1-411): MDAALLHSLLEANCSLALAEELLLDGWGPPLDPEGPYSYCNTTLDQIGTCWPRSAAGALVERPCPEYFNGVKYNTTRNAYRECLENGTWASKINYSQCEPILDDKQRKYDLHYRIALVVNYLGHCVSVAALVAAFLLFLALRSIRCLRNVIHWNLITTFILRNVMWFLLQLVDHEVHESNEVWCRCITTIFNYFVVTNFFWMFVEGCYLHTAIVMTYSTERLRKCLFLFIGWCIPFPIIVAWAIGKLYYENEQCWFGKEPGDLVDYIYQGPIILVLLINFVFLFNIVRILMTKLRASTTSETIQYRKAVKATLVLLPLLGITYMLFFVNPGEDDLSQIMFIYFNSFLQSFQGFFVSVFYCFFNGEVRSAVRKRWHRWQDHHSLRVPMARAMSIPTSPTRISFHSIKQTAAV
Source text: (§1) Plasmids containing hCRF1α and hCRF2α (GenBank accession numbers AY457172 and AY449734) were obtained from the cDNA Resource Centre (Bloomsburg University) and are referred to as CRF1 and CRF2 in this manuscript. Hemagglutinin (HA) epitope‐tagged human Calcitonin (CT) receptor (CT(a) splice variant) and myc‐tagged human RAMP1 were used as described previously. ^27 HA‐tagged human calcitonin receptor‐like receptor (CLR), N‐terminal FLAG‐tagged human RAMP3 and N‐terminal myc‐tagged human RAMP3 were a gift from Professor David Poyner (Aston University) and Professor Patrick Sexton (Monash University), respectively. N‐terminal FLAG‐tagged human RAMP2 was used as described previously. ^28 All receptors and RAMPs were cloned in pcDNA3.0 or pcDNA3.1 plasmid vectors. All plasmid inserts were sequenced at the Centre for Genomics, Proteomics and Metabolomics (University of Auckland) and the sequences were verified prior to use.
Cos7, HEK‐293S, and HEK‐293T cells were cultured as described previously. ^28 , ^29 Cos7 cells were originally supplied by the ATCC to Associate Professor Nigel Birch (University of Auckland). HEK‐293S cells were a gift from Professor David Poyner (Aston University) and HEK‐293T cells a gift from Professor John Taylor (University of Auckland). Briefly, all cell lines were cultured in Dulbecco's Modified Eagle Medium (DMEM) supplemented with 8% heat inactivated fetal bovine serum (FBS) and maintained in a humidified incubator at 37°C with 5% CO2. For transfection, cells were counted (Countess CounterTM; Life Technologies) and plated at a density of 20 000 cells per well in 96‐well plates. The cells were transiently transfected 48 hours prior to assaying using polyethylenimine (PEI), as described previously. ^28 , ^29 In all experiments a total of 0.25 μg DNA was transfected per well. In the majority of experiments 0.25 μg DNA of receptor‐containing plasmid or the pcDNA3.1 plasmid without an insert was used. For experiments involving RAMPs, 0.125 μg of receptor DNA and 0.125 μg of RAMP‐containing plasmid DNA were transfected to give a 1:1 ratio of receptor to RAMP. Where the RAMP or receptor were transfected alone, the ratio of DNA was made up with the pcDNA3.1 plasmid.
cAMP accumulation in Cos7 cells transfected with hCRF1α or hCRF2α receptors was measured using the LANCE cAMP detection assay kit (PerkinElmer Life and Analytical Sciences) as described previously. ^30 Briefly, culture media was removed and replaced with DMEM containing 0.1% bovine albumin serum (BSA) and 1 mmol/L 3‐isobutyl‐1‐methylxanthine (IBMX) for 30 minutes at 37°C. Cells were incubated for an additional 15 minutes at 37°C with media or agonist concentrations of 1 pmol/L to 1 µmol/L for agonist only assays or 10 pmol/L to 10 µmol/L concentrations for antagonist experiments. Antagonists were added simultaneously or immediately prior to the addition of agonists. To stop cell stimulation and extract cAMP, the contents of the wells were replaced with 50 µL absolute ethanol. Samples were left at −20°C for a minimum of 10 minutes. The ethanol was evaporated and replaced with 50 µL of cAMP detection buffer. Samples were shaken for 15 minutes before 5 µL cell lysate was transferred to a white 384‐well optiplate and processed for cAMP quantification as described previously. ^31 Samples were read using an Envision plate reader (PerkinElmer). cAMP concentrations were determined from a standard curve generated in duplicate.
In all experiments the position of peptides and antagonists (pharmacology) or transfected receptors (ELISAs) on assay plates was randomized during each independent experiment, which are independent biological replicates. In all cases, duplicate, triplicate, or quadruplicate technical replicates were conducted for each independent experiment.

[2] = system: calcitonin receptor; test: Antagonism of calcitonin-mediated IP1 accumulation in Cos7 cells expressing the human calcitonin receptor; type: cell-based; conditions: 100 µmol/L; n = 3
Source text: as §1, with “N‐terminal FLAG‐tagged human RAMP2 was used as described previously. ^28 All receptors and RAMPs were cloned in pcDNA3.0 or pcDNA3.1 plasmid vectors. All plasmid inserts were sequenced at the Centre for Genomics, Proteomics and Metabolomics (University of Auckland) and the sequences were verified prior to use.” left out
Cos7, HEK‐293S, and HEK‐293T cells were cultured as described previously. ^28 , ^29 Cos7 cells were originally supplied by the ATCC to Associate Professor Nigel Birch (University of Auckland). […] For transfection, cells were counted (Countess CounterTM; Life Technologies) and plated at a density of 20 000 cells per well in 96‐well plates. […]
The IP‐one Gq assay kit (Cisbio) was used to quantify accumulated myo‐inositol‐1‐phosphate (IP1), a by‐product of IP3 produced after receptor‐mediated Gαq activation in Cos7 and HEK‐293S cells. […] Fifteen microliters of sample was then transferred to a 384‐well optiplate and read by an Envision plate reader (PerkinElmer). IP1 concentrations were calculated from a standard curve generated in duplicate. […]

[3] = system: CRF1 receptor; conditions: cited from earlier work
[4] = system: CRF2 receptor; set-up: method as in PMID 11123370, PMID 12615952; conditions: cited from earlier work

Compound	effect on CRF‐mediated cAMP accumulation ([1]; 100 µM, CRF2 receptor)	effect on UCN1‐mediated cAMP accumulation ([1]; 100 µM, CRF2 receptor)	antagonist potency (pKB) ([1]; agonist CRF, cAMP)	antagonist potency (pKB) ([1]; agonist UCN1, cAMP)	effect on IP1 accumulation at the calcitonin receptor [2]	selectivity [3]	binding affinity in words [4]
CCC(CC)Nc1cc(C)nc(Oc2c(C)cc(C)cc2C)c1C [CP‐376,395]	no effect	no effect	<4	<4	no effect on IP1 accumulation at the calcitonin receptor	selective for the CRF1 receptor	–
IVLSLDVPIGLLQILLEQARARAAREQATTNARILARVGHC-NH2 (C-terminus assumed) [UCN2]	–	–	–	–	–	–	high affinity
